Reference: US20220062268A1, “PHARMACEUTICAL COMPOSITION FOR THE TREATMENT OF PARKINSON'S DISEASE” (Teva Pharmaceuticals International GmbH, priority 2014, published 2022)
Entries after “also recorded” stand apart in the source; their conditions may differ. Read-outs that look alike come from different tables or passages of the source.

Tests used:
late Parkinson's disease = details: cited from earlier work
striatal dopamine = details: compared to L-DOPA, cited from earlier work
[1] = test system: MPTP monkey model of Parkinson's disease; assay: MPTP monkey model of Parkinson's disease: tremor and Good ON; assay type: in vivo, Macaca fascicularis; details: MPTP macaques; DP-102 versus same dose of L-DOPA; tremor score summed over 3 hours post dose; FIG. 1
Method: Macaques (Macaca fascicularis) were rendered parkinsonian by repeated daily injections of MPTP hydrochloride (0.2 mg/kg, i.v.) until parkinsonian signs appeared. The degree of parkinsonism was assessed using a validated parkinsonian macaque clinical scale which rates the following symptoms of parkinsonian disability: tremor (0-3), variations in the general level of activity (0-3), body posture (flexion of spine; 0-3), vocalization (0-2), freezing (0-2), frequency of arm movements (reaching for food, 0-3 for each upper limb), and rigidity (0-3 for each upper limb).
The maximum parkinsonian disability score was 25. MPTP administration was stopped when a score of 6 was reached on the above scale (usually day 13-17). The macaques were left untreated, for a minimum of 6 weeks, until their parkinsonism became stable.
This study assessed the test item in a within-subject design with an intra-individually escalating dosage regimen.
Eight animals were randomly assigned to one of two treatment sequence groups (1: AB, 2: BA). […]
Tremor was assessed for 3 hours post L-DOPA administration for 10 minutes every 30 minutes, by post hoc analysis of video recordings by a trained assessor blinded to the study treatments. […]
The anti-parkinsonian action was evaluated based upon the “ON” state of the animals. […]

[2] = neutral pH; cited from earlier work
Parkinson models = details: cited from earlier work

CN1CCc2cccc3c2[C@H]1Cc1ccc(O)c(O)c1-3 [apomorphine]
dose of oral L-DOPA under infused apomorphine (late Parkinson's disease; daily dose of infused apomorphine 72.00±21.38 mg, reduced from 989.4±420.1 mg/day (Ruiz et al.)): 663.8 ± 403.2 mg/day | reduction of L-DOPA (late Parkinson's disease; mean daily apomorphine dose of 75.2 mg (Katzenschlager et al.)): 55%

[2H][C@@H](c1ccc(O)c(O)c1)[C@]([2H])(N)C(=O)O [α,β-D2-L-DOPA, S/S-2-amino-2,3-dideutero-3-(3,4-dihydroxyphenyl) propionic acid]
striatal dopamine levels (striatal dopamine): increase and prolong the output of striatal dopamine significantly more than L-DOPA; also recorded: highest striatal dopamine concentrations

N[C@@H](Cc1ccc(O)c(O)c1)C(=O)O [L-DOPA, (2S)-2-amino-3-(3,4-dihydroxyphenyl)propanoic acid, reference compound]
tremor in relation to Good ON [1]: higher or observed at lower Good ON levels | solubility [2]: poorly dissolved at neutral pH

[2H]C([2H])(c1ccc(O)c(O)c1)[C@]([2H])(N)C(=O)O [DP-102, L-2-Amino-2,3,3-trideutero-3-(3,4-dihydroxyphenyl) propionic acid]
equi-effective dose compared to L-DOPA (Parkinson models; in vivo): about 60% | motor activity (Parkinson models; several Parkinson models, compared to L-DOPA): improved motor activity compared to L-DOPA | tremor in relation to Good ON [1]: less tremor at more Good ON | striatal dopamine levels (striatal dopamine; listed as α,β,β-D3-L-DOPA): higher longer-lasting striatal dopamine levels than L-DOPA; also recorded: increase and prolong the output of striatal dopamine significantly more than L-DOPA
